Reference: patent US12660819B2, “Herbicidal derivatives” (SYNGENTA CROP PROTECTION AG, priority 2020, dated 2026)

Experiments:
Assay type in all cases: in vivo
[1] = system: Amaranthus retoflexus (AMARE); test: Pre-emergence Test (glasshouse, percentage damage to the plant); conditions: 1000 g/ha unless otherwise stated, five-point scale
[2] = system: Echinochloa crus-galli (ECHCG); test: as above; conditions: 1000 g/ha unless otherwise stated, five-point scale
[3] = system: Abutilon theophrasti (ABUTH); test: as above; conditions: 1000 g/ha unless otherwise stated, five-point scale
[4] = system: Ipomoea hederacea (IPOHE); test: as above; conditions: 1000 g/ha unless otherwise stated, five-point scale
[5] = system: Echinochloa crus-galli (ECHCG); test: Post-emergence Test (glasshouse, percentage damage to the plant); conditions: post-emergence spray, 1000 g/ha unless otherwise stated, evaluated after 13 days
Method in brief: (§1)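 After sowing in standard soil, pots were kept at 24/16 °C (day/night), 14 h light and 65% humidity. They were sprayed at 1000 g/ha unless otherwise stated, watered twice daily, and assessed for percentage damage at 13 days on a 1–5 scale.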

[6] = system: Setaria faberi (SETFA); test: as above; conditions: post-emergence spray, 1000 g/ha unless otherwise stated, evaluated after 13 days
Method in brief: (§2)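 Sown pots; spray 1000 g/ha (unless stated) in acetone/water 50:50 + 0.5% Tween 20; glasshouse 24/16 °C, 14 h light, 65% RH; watered twice daily; % damage read at 13 days, scored 1–5.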

[7] = system: Zea mays (ZEAMX); test: as above; conditions: post-emergence spray, 1000 g/ha unless otherwise stated, evaluated after 13 days
Method in brief: as §2

[8] = system: Amaranthus retoflexus (AMARE); test: as above; conditions: post-emergence spray, 1000 g/ha unless otherwise stated, evaluated after 13 days
Method in brief: as §1

[9] = system: Ipomoea hederacea (IPOHE); test: as above; conditions: post-emergence spray, 1000 g/ha unless otherwise stated, evaluated after 13 days
Method in brief: as §2

[10] = system: Abutilon theophrasti (ABUTH); test: as above; conditions: post-emergence spray, 1000 g/ha unless otherwise stated, evaluated after 13 days
Method in brief: as §1

[11] = system: Zea mays (ZEAMX); test: Pre-emergence Test (glasshouse, percentage damage to the plant); conditions: 1000 g/ha unless otherwise stated, five-point scale
[12] = system: Setaria faberi (SETFA); test: as above; conditions: 1000 g/ha unless otherwise stated, five-point scale

| Structure (SMILES) | percentage damage to the plant, AMARE [1] | percentage damage to the plant, ECHCG [2] | percentage damage to the plant, ABUTH [3] | percentage damage to the plant, IPOHE [4] | Post-emergence Test ECHCG, percentage damage to the plant (five-point scale) [5] | Post-emergence Test SETFA, percentage damage to the plant (five-point scale) [6] | Post-emergence Test ZEAMX, percentage damage to the plant (five-point scale) [7] | Post-emergence Test AMARE, percentage damage to the plant (five-point scale) [8] | Post-emergence Test IPOHE, percentage damage to the plant (five-point scale) [9] | Post-emergence Test ABUTH, percentage damage to the plant (five-point scale) [10] | percentage damage to the plant, ZEAMX [11] | percentage damage to the plant, SETFA [12] |
| --- | --- | --- | --- | --- | --- | --- | --- | --- | --- | --- | --- | --- |
| CCn1c(C)c(-c2ccc(OC(F)(F)F)cc2)c(=O)c(C(=O)O)c1-c1ccc(F)cc1F [Compound 136, 2-(2,4-difluorophenyl)-1-ethyl-6-methyl-4-oxo-5-[4-(trifluoromethoxy)phenyl]pyridine-3-carboxylic acid] | 2 (2=21-40%) | 3 (3=41-60%) | 3 (3=41-60%) | 2 (2=21-40%) | 3 (3=41-60%) | 4 (4=61-80%) | 1 (1=0-20%) | 3 (3=41-60%) | 2 (2=21-40%) | 3 (3=41-60%) | 1 (1=0-20%) | 5 (5=81-100%) |
| CCOC(=O)c1c(-c2ccc(Br)cc2F)n(CC)c(C)c(-c2ccc(Cl)cc2)c1=O [Compound 137, ethyl 2-(4-bromo-2-fluoro-phenyl)-5-(4-chlorophenyl)-1-ethyl-6-methyl-4-oxo-pyridine-3-carboxylate] | 5 (5=81-100%) | 0 | 0 | 0 | 4 (4=61-80%) | 3 (3=41-60%) | 2 (2=21-40%) | 3 (3=41-60%) | 3 (3=41-60%) | 3 (3=41-60%) | 0 | 1 (1=0-20%) |
| CCn1c(C)c(-c2ccc(Cl)cc2)c(=O)c(C(=O)O)c1-c1ccc(Cl)cc1 [Compound 138, 2,5-bis(4-chlorophenyl)-1-ethyl-6-methyl-4-oxo-pyridine-3-carboxylic acid] | 5 (5=81-100%) | 3 (3=41-60%) | 3 (3=41-60%) | 1 (1=0-20%) | 2 (2=21-40%) | 3 (3=41-60%) | 0 | 1 (1=0-20%) | 1 (1=0-20%) | 3 (3=41-60%) | 1 (1=0-20%) | 5 (5=81-100%) |
